Assays:
DNase I = assay: Stability in the presence of DNase I; format: in vitro ADME, human; conditions: 1 unit of DNase I, 5 minutes at 37° C.
Experimental: FIGS. 7A and 7B. Stability of apMNKQ2. Chip Experion™ DNA 1K Analysis Kit (BioRad, USA) for analyzing the stability of apMNKQ2 with 1 unit, 0.5 units, and 0.25 units of DNase I (FIG. 7A). In FIG. 7B, the degradation of aptamer apMNKQ2 in human plasma at 0, 6, 16, 24, 48, and 72 hours is depicted.
In the context of the present invention, the term “incubated” is understood to mean being subjected to the assay conditions, specifically to incubation in a buffer with 10 mM Tris HCl, pH 7.5, 2.5 mM MgCl2, and 0.1 mM CaCl2).
In the context of the present invention, the term “1 unit of DNase I” is understood to mean the amount of DNase I which completely degrades 1 μg of DNA in 10 minutes at 37° C.
In the context of the present invention, “DNase I” is understood to mean the deoxyribonuclease-I protein encoded by the human DNASE1 gene. […]
The previously structured aptamer apMNKQ2 (1 μg) was incubated in the presence of 1 unit, 0.5 units, and 0.25 units of the enzyme DNase I (ThermoFisher Scientific, USA) in the buffer supplied by the company (10 mM Tris HCl, pH 7.5, 2.5 mM MgCl2, 0.1 mM CaCl2)) for 5 minutes at 37° C., and the reaction was then stopped by adding 1 μL of 50 mM EDTA (ThermoFisher Scientific, USA) and heating at 65° C. for 10 minutes. […] The samples were analyzed using an Experion™ DNA 1K Analysis Kit chip (BioRad, USA). […]

AKT = assay: Western blot of phosphorylation, combined therapy study; format: cell-based, human; conditions: MDA-MB-231 and MCF7 cells, 24 hours
Experimental: (§1) FIG. 22A & 22B. Combined therapy studies of apMNKQ2 and everolimus. […] The different antibodies used are indicated.
(§2) Seventy-two hours after treatment, MTT activity was measured.

eIF4E = assay: as above; format: cell-based, human; conditions: MDA-MB-231 and MCF7 cells, 24 hours
Experimental: as §1, §2

ribosomal protein S6 = assay: as above; format: cell-based, human; conditions: MDA-MB-231 and MCF7 cells, 24 hours
Experimental: as §1, §2

MNK1 = assay: Apta-western with biotin-labeled aptamer; format: binding
Text: FIGS. 6A-6C. Characterization of the interaction of aptamer apMNKQ2 with MNK1 by means of Apta-western. Detection of MNK1a and MNK1b, as well as of the two GST-bound variants MNK1aΔ77 and MNK1ΔCt, with biotin-labeled aptamer apMNKQ2 in electrophoresis (12%) in denaturing conditions (FIG. 6A) and in native conditions (without SDS or β-mercaptoethanol) (FIG. 6B). Quantification of protein levels in relation to MNK1a (*p<0.05 with respect to 1) (FIG. 6C).
In the apta-western assays, the proteins were resolved in polyacrylamide gels in native or denaturing conditions, transferred to PVDF membranes, and incubated with aptamers and streptavidin-peroxidase as indicated above after blocking with 5% PBS-BSA. Finally, the signal was visualized with the chemiluminescence developing system (Clarity Western ECL, BioRad, USA).
On the other hand, apta-western assays were carried out to confirm the affinity of the aptamer apMNKQ2 for proteins MNK1a and MNK1b. To that end, the four constructs used in FIG. 5A were analyzed by electrophoresis, blot, and apta detection. […] This may be due to the fact that the site the aptamer recognizes may not be accessible in all the proteins when they are structured and said site may be exposed as the proteins denature. […] The result is shown in FIG. 6B and quantified in FIG. 6C.

5′TGGGGTGGGCGGGCGGGGGTGGGGGTGGT-3′ (DNA, backbone and methylation of C not given here; further chemistry not fully specified) [apMNKQ2]
stability (DNase I): 100% | phosphorylation of AKT (AKT): no effect | phosphorylation of eIF4E (eIF4E): no effect | phosphorylation of ribosomal protein S6 (dependent on mTOR activity) (ribosomal protein S6): also affects this phosphorylation | recognition of MNK1a, MNK1b, MNK1aΔ77 and MNK1ΔCt (apta-western) (MNK1; denaturing conditions): capable of recognizing and binding to the four isoforms of the protein in a similar manner | recognition of MNK1a, MNK1b, MNK1aΔ77 and MNK1ΔCt (apta-western) (MNK1; native conditions (without SDS or β-mercaptoethanol)): capable of significantly differentiating MNK1b from other isoforms
